Reference: patent US8003658B2, “Quinazoline derivatives for inhibiting cancer cell growth and method for the preparation thereof” (Hanmi Holdings Co., Ltd., priority 2004, dated 2011)
Like-named read-outs stand apart in the source and are kept apart here.

Experiments:
A431 (ATCC: CRL-1555) = assay: Test of cancer cell growth inhibition (SRB), A431; details: read-out: IC50 A431
SK-Br3 (ATCC: HTB-30) = assay: Test of cancer cell growth inhibition (SRB), SK-Br3; details: read-out: IC50 SK-Br-3
SW-620 (ATCC: CCL-227) = assay: Test of cancer cell growth inhibition (SRB), SW-620; details: read-out: IC50 SW-620
[1] = EGFR overexpressed A431, 72 hours, SRB
[2] = Erb-B2 overexpressed SK-Br3, 72 hours, SRB
[3] = SW-620 not having overexpressed EGFR and Erb-B2, 72 hours, SRB

Row | Molecule | IC50 (A431 (ATCC: CRL-1555); Homo sapiens, A-431, 72 h) | IC50 (SK-Br3 (ATCC: HTB-30); Homo sapiens, SK-BR-3, 72 h) | IC50 (SW-620 (ATCC: CCL-227); Homo sapiens, SW-620, 72 h) | IC50 (A431 (ATCC: CRL-1555); [1]) | IC50 (SK-Br3 (ATCC: HTB-30); [2]) | IC50 (SW-620 (ATCC: CCL-227); [3])
1 | COCC(=O)NCC(=O)Nc1ccc2ncnc(Nc3ccc(OCc4cccc(F)c4)c(Cl)c3)c2c1 [Example 2-4, N-({4-[3-chloro-4-(3-fluoro-benzyloxy)-phenylamino]-quinazolin-6-ylcarbamoyl}-methyl)-2-methoxy-acetamide] | 206 nM | 245 nM | > 10000 nM |  |  | 
2 | C=CC(=O)NCC(=O)Nc1ccc2ncnc(Nc3ccc(OCc4cccc(F)c4)c(Cl)c3)c2c1 [Example 4, N-({4-[3-chloro-4-(3-fluoro-benzyloxy)-phenylamino]-quinazolin-6-ylcarbamoyl}-methyl)-acrylamide] | 179 nM | 10 nM | > 10000 nM |  |  | 
3 | COCC(=O)N[C@@H](Cc1ccccc1)C(=O)Nc1ccc2ncnc(Nc3ccc(OCc4cccc(F)c4)c(Cl)c3)c2c1 [Example 5-3, (2S)—N-{4-[3-chloro-4-(3-fluoro-benzyloxy)-phenylamino]-quinazolin-6-yl}-2-(2-methoxy-acetylamino)-3-phenyl-propionamide] | 315 nM | 106 nM | > 10000 nM |  |  | 
4 | C=CC(=O)N[C@@H](CCSC)C(=O)Nc1ccc2ncnc(Nc3ccc(OCc4cccc(F)c4)c(Cl)c3)c2c1 [Example 9, (2S)-2-acryloylamino-N-{4-[3-chloro-4-(3-fluoro-benzyloxy)-phenylamino]-quinazolin-6-yl}-4-methanesulfanyl-butyramide] |  |  |  | 60 nM | 7 nM | > 10000 nM
5 | C=CC(=O)N1CCCC1C(=O)Nc1ccc2ncnc(Nc3ccc(OCc4cccc(F)c4)c(Cl)c3)c2c1 (stereo not shown) [Example 18, 1-acryloyl-pyrrolidine-2-carboxylic acid {4-[3-chloro-4-(3-fluoro-benzyloxy)-phenylamino]-quinazolin-6-yl}-amide] | 157 nM | 290 nM | > 10000 nM |  |  | 
6 | CS(=O)(=O)CC(=O)NCCC(=O)Nc1ccc2ncnc(Nc3ccc(OCc4cccc(F)c4)c(Cl)c3)c2c1 [Example 21, N-{4-[3-chloro-4-(3-fluoro-benzyloxy)-phenylamino]-quinazolin-6-yl}-3-(2-methanesulfonyl-acetylamino)-propionamide] | 455 nM | 16 nM | > 10000 nM |  |  | 
7 | CC=CC=CC(=O)NCCC(=O)Nc1ccc2ncnc(Nc3ccc(OCc4cccc(F)c4)c(Cl)c3)c2c1 [Example 24, hexa-2,4-dienonylic acid (2-{4-[3-chloro-4-(3-fluoro-benzyloxy)-phenylamino]-quinazolin-6-ylcarbamoyl}-ethyl)-amide] |  |  |  | 232 nM | 105 nM | > 10000 nM
8 | O=C(CCNC(=O)C1=CCCC1)Nc1ccc2ncnc(Nc3ccc(OCc4cccc(F)c4)c(Cl)c3)c2c1 [Example 25, cyclopent-1-en carboxylic acid (2-{4-[3-chloro-4-(3-fluoro-benzyloxy)-phenylamino]-quinazolin-6-ylcarbamoyl}-ethyl)-amide] | 138 nM | 133 nM | > 10000 nM |  |  | 
9 | CC#CC(=O)NCCC(=O)Nc1ccc2ncnc(Nc3ccc(OCc4cccc(F)c4)c(Cl)c3)c2c1 [Example 27, but-2-ynoylic acid(2-{4-[3-chloro-4-(3-fluoro-benzyloxy)-phenylamino]-quinazolin-6-ylcarbamoyl}-ethyl)-amide] |  |  |  | 85 nM | 10 nM | > 10000 nM
10 | CC=CC(=O)NCCC(=O)Nc1ccc2ncnc(Nc3ccc(OCc4cccc(F)c4)c(Cl)c3)c2c1 [Example 28, but-2-enonylic acid (2-{4-[3-chloro-4-(3-fluoro-benzyloxy)-phenylamino]-quinazolin-6-ylcarbamoyl}-ethyl)-amide] |  |  |  | 197 nM | 65 nM | > 10000 nM
11 | C=CC(=O)N1CC(C(=O)Nc2cc3c(Nc4ccc(OCc5ccccn5)c(Cl)c4)ncnc3cc2OC)C1 [Example 200, 1-acryloyl-azetidine-3-carboxylic acid {4-[3-chloro-4-(pyridin-2-ylmethoxy)-phenylamino]-7-methoxy-quinazolin-6-yl}-amide] | 332 nM | 8 nM |  |  |  | 
12 | C=CC(=O)N1CCC[C@H](C(=O)Nc2cc3c(Nc4ccc(OCc5ccccn5)c(Cl)c4)ncnc3cc2OC)C1 [Example 201, (3S)-1-acryloyl-piperidine-3-carboxylic acid {4-[3-chloro-4-(pyridin-2-ylmethoxy)-phenylamino]-7-methoxy-quinazolin-6-yl}-amide] | 148 nM | 25 nM |  |  |  | 
13 | C=CC(=O)N(CC)[C@@H](C)C(=O)Nc1cc2c(Nc3ccc(OCc4ccccn4)c(Cl)c3)ncnc2cc1OC [Example 202, N-((1S)-1-{4-[3-chloro-4-(pyridin-2-ylmethoxy)-phenylamino]-7-methoxy-quinazolin-6-ylcarbamoyl}-ethyl)-N-ethyl-acrylamide] | 105 nM | 6 nM |  |  |  | 
14 | C=CC(=O)N1CCC[C@H]1C(=O)Nc1cc2c(Nc3ccc(OCCF)c(Cl)c3)ncnc2cc1OC [Example 203, (2S)-1-acryloyl-pyrrolidine-2-carboxylic acid {4-[3-chloro-4-(2-fluoro-ethoxy)-phenylamino]-7-methoxy-quinazolin-6-yl}-amide] | 269 nM | 34 nM |  |  |  | 
15 | C=CC(=O)N1CCC[C@H]1C(=O)Nc1cc2c(Nc3ccc(OCc4cccnc4)c(Cl)c3)ncnc2cc1OC [Example 204, (2S)-1-acryloyl-pyrrolidine-2-carboxylic acid {4-[3-chloro-4-(pyridin-3-ylmethoxy)-phenylamino]-7-methoxy-quinazolin-6-yl}-amide] | 85 nM | 30 nM |  |  |  | 
16 | C=CC(=O)NCC(F)C(=O)Nc1cc2c(Nc3ccc(OCc4ccccn4)c(Cl)c3)ncnc2cc1OC (stereo not shown) [Example 206, N-(2-{4-[3-chloro-4-(pyridin-2-ylmethoxy)-phenylamino]-7-methoxy-quinazolin-6-ylcarbamoyl}-2-fluoro-ethyl)-acrylamide] | 17 nM | 10 nM |  |  |  | 
17 | C=CC(=O)N1CCC[C@H]1C(=O)Nc1cc2c(Nc3ccc(OCc4cccnc4)c(Cl)c3)ncnc2cc1OCCCN1CCOCC1 [Example 209, (2S)-1-acryloyl-pyrrolidine-2-carboxylic acid {4-[3-chloro-4-(pyridin-3-ylmethoxy)-phenylamino]-7-(3-morpholin-4-yl-propoxy)-quinazolin-6-yl}-amide] | 44 nM | 3 nM |  |  |  | 
18 | C=CC(=O)N[C@@H](C)CC(=O)Nc1cc2c(Nc3ccc(OCc4ccccn4)c(Cl)c3)ncnc2cc1OC [Example 212, (3S)-3-acryloylamino-N-{4-[3-chloro-4-(pyridin-2-ylmethoxy)-phenylamino]-7-methoxy-quinazolin-6-yl}-butyramide] | 98 nM | 9 nM |  |  |  | 
19 | C=CC(=O)N1CCC[C@H]1C(=O)Nc1cc2c(Nc3ccc(OCc4ccccn4)c(Cl)c3)ncnc2cc1OCCOC [Example 213, (2S)-1-acryloyl-pyrrolidine-2-carboxylic acid {4-[3-chloro-4-(pyridin-2-ylmethoxy)-phenylamino]-7-(2-methoxyethoxy)-quinazolin-6-yl}-amide] | 34 nM | 4 nM |  |  |  | 
20 | C=CC(=O)N[C@@H](C)C(=O)Nc1cc2c(Nc3ccc(OCc4cccc(F)c4)c(Cl)c3)ncnc2cc1OCCOC [Example 214, (1S)—N-(1-{4-[3-chloro-4-(3-fluoro-benzyloxy)-phenylamino]-7-(2-methoxyethoxy)-quinazolin-6-ylcarbamoyl}-ethyl)-acrylamide] | 22 nM | 6 nM |  |  |  | 
21 | C=CC(=O)N1CCC[C@H]1C(=O)Nc1cc2c(Nc3ccc(OCc4cccc(F)c4)c(Cl)c3)ncnc2cc1OCCOC [Example 215, (2S)-1-acryloyl-pyrrolidine-2-carboxylic acid {4-[3-chloro-4-(3-fluoro-benzyloxy)-phenylamino]-7-(2-methoxyethoxy)-quinazolin-6-yl}-amide] | 59 nM | 11 nM |  |  |  | 
22 | C=CC(=O)N[C@@H](C)C(=O)Nc1cc2c(Nc3ccc(OCc4ccccn4)c(Cl)c3)ncnc2cc1OCCCOC [Example 220, (1S)—N-(1-{4-[3-chloro-4-(pyridin-2-ylmethoxy)-phenylamino]-7-(3-methoxypropoxy)-quinazolin-6-ylcarbamoyl}-ethyl)-acrylamide] | 22 nM | 21 nM |  |  |  | 
23 | C=CC(=O)N[C@H](C(=O)Nc1ccc2ncnc(Nc3ccc(OCc4ccccn4)c(Cl)c3)c2c1)C(C)C [Example 224, (2S)-2-acryloylamino-N-{4-[3-chloro-4-(pyridin-2-ylmethoxy)-phenylamino]-quinazolin-6-yl}-3-methyl-butyramide] | 49 nM | 12 nM |  |  |  | 
24 | C=CC(=O)N[C@@H](CC(C)C)C(=O)Nc1ccc2ncnc(Nc3ccc(OCc4ccccn4)c(Cl)c3)c2c1 [Example 225, (2S)-2-acryloylamino-4-methyl-pentanoic acid {4-[3-chloro-4-(pyridin-2-ylmethoxy)-phenylamino]-quinazolin-6-yl}-amide] | 42 nM | 21 nM |  |  |  | 
25 | (2S)-2-acryloylamino-N-{4-[3-chloro-4-(3-fluoro-benzyloxy)-phenylamino]-7-(2-methoxyethoxy)-quinazolin-6-yl}-4-methylsulfanyl-butyramide [Example 222] |  |  |  | 25 nM | 9 nM | 
26 | (2S)-2-acryloylamino-N-{4-[3-chloro-4-(3-fluoro-benzyloxy)-phenylamino]-7-methoxy-quinazolin-6-yl}-4-methanesulfinyl-butyramide [Example 223] |  |  |  | 54 nM | 32 nM | 
27 | (2S)-2-acryloylamino-N-{4-[3-chloro-4-(3-fluoro-benzyloxy)-phenylamino]-7-methoxy-quinazolin-6-yl}-4-methylsulfanyl-butyramide [Example 221] |  |  |  | 28 nM | 23 nM | 
